In patent US20130303575A1, “ADMINISTRATION OF AN INHIBITOR OF HDAC” (priority 2007, published 2013):
“Also recorded” adds a separate entry of the source.

Tests used:
Format in all cases: in vivo, human
[1] = test system: advanced solid tumors or lymphomas; experiment: Response evaluation in patients with advanced solid tumors or lymphoma (Example 2)
Procedure: At study entry, history, physical examination, laboratory studies (CBC, electrolytes, creatinine, blood urea nitrogen, total and direct bilirubin, ALT, AST, alkaline phosphatase, uric acid, prothrombin time, partial thromboplastin time, and urinalysis), computed tomography scan and chest x-ray and ECG were performed. Clinical assessments, including a physical examination and adverse event evaluation, were conducted at each follow-up. Adverse events were graded by the NCI Common Toxicity Criteria (version 2.0). Computed tomography scans and staging was performed every 6 weeks for the q14-day schedule. Disease-specific staging techniques, such as bone marrow aspirate and biopsy, flow cytometry, cutaneous lesion photography, or bone scan were used as indicated. Response evaluations used the Response Evaluation Criteria in Solid Tumors and the Cheson criteria for lymphoma. Multiple-gated acquisition (MUGA) scans were obtained on the q14-day schedule at base line, before course 2 and at each restaging. Laboratory studies (CBC with differential, chemistry 20, prothrombin time and […] thromboplastin time) were performed on days 1, 3, 5, 7 and repeated weakly.

advanced acute leukemias = experiment: Clinical outcome and biologic effects in adults with advanced acute leukemias (Example 3)
Procedure: To assess response to therapy, a BM aspiration was performed weekly for 4 weeks during the first cycle, at the end of each subsequent cycle, or at any time leukemia regrowth was suspected. Complete response (CR) required a normal BM aspirate with absence of identifiable leukemia, absolute neutrophils count (ANC) of 1×10^9/L or higher, platelet count of 100×10^9/L or higher, and absence of blasts in peripheral blood (PB). […] Progressive disease (PD) was defined as >50% increase in marrow or PB blasts from baseline or development of extramedullary leukemia.

[2] = test system: histone H3, H4 and protein acetylation; experiment: Histone H3, H4 and protein acetylation, p21 and caspase-3 in PBMCs and BMMCs (Example 3)
Procedure: Serial marrow and/or peripheral blood cells were collected at weekly intervals to examine PAMC-induced changes in histone acetylation.
Changes in histone H3, H4 and protein acetylation (immunocytochemistry, multiparameter flow cytometry and western blot analysis.) Immunocytochemical analysis of histone H3 was performed on bone marrow mononuclear cells (BMMCs) as described previously. The multiparameter flow cytometric analysis of protein acetylation versus caspase-3 activation was performed on serial BM aspirates using monoclonal anti-acetylated lysine antibody (Cell Signaling Technology, Beverly, Mass.) followed by FITC-conjugated goat anti-mouse antibody (Caltag Laboratories, Burlingame, Calif.) and polyclonal PE-conjugated anti-caspase-3, active form antibody (BD Pharmingen, Sand Diego, Calif.). The analysis of protein acetylation versus p21 expression or CD 34 expression was performed using polyclonal anti-acetylated lysine antibody (Cell Signaling Technology) versus monoclonal anti-p21 antibody (BD Transduction Laboratories, San Jose, Calif.) or monoclonal anti-CD34 antibody (BD Pharmingen). Primary antibodies were detected using PE-conjugated goat anti-mouse and FITC-conjugated goat anti-rabbit antibodies (Caltag Laboratories). For staining, BMMCs were isolated using Ficoll-Paque Plus (Amersham Biosciences, Piscataway, N.J.) fixed in 0.4% paraformaldehyde, permeabilized with 0.4% Triton X-100, incubated with primary antibodies for 1 hour at room temperature, washed, incubated with secondary antibodies for 1 hour, washed and analyzed on a FACSCalibur flow cytometer (Becton Dickinson, San Jose, Calif.) using CellQuest software for acquisition and FloJo software for analysis.
For western blot analysis of histone acetylation, PBMCs and BMMCs were isolated using Ficoll-Paque Plus (Amersham Biosciences). Histones from the cells were prepared as follows: Cells were washed in 2 ml HBSS and disrupted by a 1 mL ice-cold lysis buffer A (10 mM Tris pH 7.6, 5 mM butyric acid, 1% Triton X-100, 1 mM MgCl2, and 1 mM PMSF). Nuclei were collected by centrifugation at 14,000 rpm for 15 min. The pellet was resuspended once with 250 μL ice-cold lysis buffer B (10 mM Tris pH 7.6, 0.25 M Sucrose, 3 mM CaCl2 and 5 mM butyric acid). Sulfuric acid was added to a concentration of 0.4 N and the tubes were incubated at 4° C. overnight. Debris was pelleted by centrifugation, and the supernatant was collected. Histones were precipitated by addition of 10 volumes of acetone and incubation at −20° C. overnight. Pellets were collected by centrifugation, briefly dried under vacuum and resuspended with dH2O. The total protein content was determined by a bicinchoninic acid assay kit (Pierce, Rockford, Ill.). The proteins 10-30 μg were separated by 15% SDS PAGE and visualized using the antibodies for acetyl-histone H3, acetyl-histone H4, and histone H2A, all from Upstate Biotechnologies (Lake Placid, N.Y.). The immunoreactive proteins were detected using ECL western blotting analysis system (Amersham Biosciences). Radiographic films of histone acetylation were scanned and digitized (UN-SCAN-IT), Silk Scientific, UT).

**Q.** For `Nc1ccccc1NC(=O)c1ccc(CNC(=O)OCc2cccnc2)cc1` [SNDX-275, N-(2-aminophenyl) 4-[N-(pyrid-3-yl)methyloxycarbonylaminomethyl]benzamide], which “patients remaining on treatment for greater than 3 months” value ([1]; human, in vivo) is on record?
**A.** Ten of 29

**Q.** And the objective responses ([1]; q14-day schedule)?
**A.** not observed

**Q.** What about the “patients with stable disease” value ([1]; q14-day schedule) of the same compound?
**A.** 15

**Q.** What about the “CR or PR by standard criteria” value (advanced acute leukemias; 34 patients evaluable for response) of the same compound?
**A.** No patients achieved CR or PR

**Q.** What about the “patients with a 50% reduction in WBC counts” value (advanced acute leukemias; Fifteen patients) of the same compound?
**A.** 38.5%

**Q.** What about the “Type of Response” value (advanced acute leukemias; patient 2, 4 mg/m^2 × 2/4 weeks, 4 cycles, bone marrow blast response) of the same compound?
**A.** Bone marrow PR (>50% → 12% blasts, cycle 1)

**Q.** What about the “Type of Response” value (advanced acute leukemias; patient 2, 4 mg/m^2 × 2/4 weeks, 4 cycles, myeloid differentiation by ANC) of the same compound?
**A.** Differentiation in myeloid lineage (ANC 504/μL →

**Q.** What about the ANCmax (advanced acute leukemias; patient 2, 4 mg/m^2 × 2/4 weeks, cycle 1, from ANC 504/μL) of the same compound?
**A.** ANCmax 1410/μL, cycle 1)

**Q.** And the “Type of Response” value (advanced acute leukemias; patient 5, 4 mg/m^2 × 2/4 weeks (cycle 1), 6 mg/m^2 × 2/4 weeks (cycle 2 and 3), 3 cycles)?
**A.** Stable disease

**Q.** What about the “Type of Response” value (advanced acute leukemias; patient 11, 8 mg/m^2 × 2/4 weeks, 1 cycle) of the same compound?
**A.** Decreased transfusion requirements

**Q.** What about the “Type of Response” value (advanced acute leukemias; patient 14, 8 mg/m^2 × 4/6 weeks, 1 cycle) of the same compound?
**A.** Resolution of bone pain

**Q.** And the “Type of Response” value (advanced acute leukemias; patient 15, 8 mg/m^2 × 4/6 weeks, 1.75 cycles, bone marrow blast response)?
**A.** Bone marrow PR (35% → 14% blasts, cycle 1)

**Q.** And the “Type of Response” value (advanced acute leukemias; patient 15, 8 mg/m^2 × 4/6 weeks, 1.75 cycles, myeloid differentiation by ANC)?
**A.** Differentiation in myeloid lineage (ANC 288/μL →

**Q.** What about the ANCmax (advanced acute leukemias; patient 15, 8 mg/m^2 × 4/6 weeks, cycle 1, from ANC 288/μL) of the same compound?
**A.** 2052 µL⁻¹

**Q.** And the ANCmax (advanced acute leukemias; patient 15, 8 mg/m^2 × 4/6 weeks, cycle 2)?
**A.** 5546 µL⁻¹

**Q.** And the “Type of Response” value (advanced acute leukemias; patient 18, 8 mg/m^2 × 4/6 weeks, 1.25 cycles)?
**A.** Differentiation in myeloid lineage (ANC 124/μL →

**Q.** What about the ANCmax (advanced acute leukemias; patient 18, 8 mg/m^2 × 4/6 weeks, cycle 1, from ANC 124/μL) of the same compound?
**A.** ANCmax 680/μL, cycle 1)

**Q.** What about the “Type of Response” value (advanced acute leukemias; patient 20, 8 mg/m^2 × 4/6 weeks, 1 cycle) of the same compound?
**A.** Decreased transfusion requirements

**Q.** What about the “Type of Response” value (advanced acute leukemias; patient 24, 8 mg/m^2 × 4/6 weeks, 4.75 cycles, bone marrow blast response) of the same compound?
**A.** Bone marrow PR (30% → 20% blasts, cycle 1)

**Q.** And the “Type of Response” value (advanced acute leukemias; patient 24, 8 mg/m^2 × 4/6 weeks, 4.75 cycles, myeloid differentiation by ANC)?
**A.** Differentiation in myeloid lineage (ANC 520/μL →

**Q.** What about the ANCmax (advanced acute leukemias; patient 24, 8 mg/m^2 × 4/6 weeks, cycle 1, from ANC 520/μL) of the same compound?
**A.** 3637 µL⁻¹

**Q.** What about the ANCmax (advanced acute leukemias; patient 24, 8 mg/m^2 × 4/6 weeks, cycle 3) of the same compound?
**A.** 4456 µL⁻¹

**Q.** What about the “Type of Response” value (advanced acute leukemias; patient 27, 8 mg/m^2 × 4/6 weeks, 5 cycles) of the same compound?
**A.** Stable disease; also recorded: Peripheral blood 21% → 0% blasts

**Q.** What about the “Type of Response” value (advanced acute leukemias; patient 33, 10 mg/m^2 × 4/6 weeks, 2 cycles) of the same compound?
**A.** Resolution of extramedullary chloroma

**Q.** What about the “Type of Response” value (advanced acute leukemias; patient 34, 10 mg/m^2 × 4/6 weeks, 2 cycles, bone marrow blast response) of the same compound?
**A.** Bone marrow CR (54% → 3% blasts, cycle 1)

**Q.** And the “Type of Response” value (advanced acute leukemias; patient 34, 10 mg/m^2 × 4/6 weeks, 2 cycles, myeloid differentiation by ANC)?
**A.** Differentiation in myeloid lineage (ANC 103/μL →

**Q.** What about the ANCmax (advanced acute leukemias; patient 34, 10 mg/m^2 × 4/6 weeks, cycle 1, from ANC 103/μL) of the same compound?
**A.** 854 µL⁻¹

**Q.** And the ANCmax (advanced acute leukemias; patient 34, 10 mg/m^2 × 4/6 weeks, cycle 2)?
**A.** 2929 µL⁻¹

**Q.** What about the “median time to 50% reduction in WBC counts” value (advanced acute leukemias; range 3-28) of the same compound?
**A.** 6 days

**Q.** What about the “histone H3 and H4 acetylation by western blotting” value ([2]; PBMCs and BMMCs, 8 patients at DL 4 and 1 patient at DL 5) of the same compound?
**A.** increase in histone H3 and H4 acetylation

**Q.** What about the “protein and H3/H4 acetylation, p21 expression, caspase-3 activation” value ([2]; bone marrow mononuclear cells) of the same compound?
**A.** increase in protein and H3/H4 acetylation, p21 expression, and caspase-3 activation

**Q.** What about the “specimens with caspase-3 activation” value ([2]; flow cytometric analysis) of the same compound?
**A.** 67%

**Q.** And the “time at which increase in histone H3 and H4 acetylation was evident” value ([2]; following SNDX-275 treatment, 4 patients with early PB specimens)?
**A.** 8 to 12 h

**Q.** And the “persistence of histone acetylation following last SNDX-275 administration” value ([2]; in vivo)?
**A.** 2-3 weeks

**Q.** What about the “histone H3 acetylation by immunocytochemistry” value ([2]; lowest dose level) of the same compound?
**A.** increase in histone H3 acetylation
